Converted amounts (≈) assume the structure as drawn. Like-named read-outs stand apart in the source and are kept apart here.
Assays:
E. fecalis = assay: MIC against E. fecalis; type: cell-based; conditions: for MIC E. fecalis: Table 2
Description: (§1) To further investigate the antibacterial and/or DNA pol III inhibitory activity of various drug compounds, various ester-containing moieties N-linked to the EMAU core were produced as described in Example 1. These prodrugs were assayed for inhibition of B. subtilis DNA pol III and antibiotic activity against a number of bacteria.
(§2) The minimal inhibitory concentrations (MICs) of the four N3-substituted agents and EMAU were determined for B. subtilis (BS), methicillin-sensitive and resistant S. aureus (SA & MRSA), vancomycin-sensitive and resistant E. fecalis (EF& VREF), vancomycin-resistant E. fecium (VREF*), and E. coli (EC) as a Gram-negative control.

S. aureus = assay: MIC against S. aureus (methicillin-sensitive); type: cell-based; conditions: for MIC S. aureus: Table 2; for MIC: Staphylococcus aureus
Description: as §1, §2

B. subtilis DNA pol III = B. subtilis DNA pol III (Bacillus subtilis, UniProt P13267); assay: Inhibition of B. subtilis DNA pol III (Ki); type: biochemical
Description: as §1
(§3) The competitive inhibitor constants (Ki) of selected EMAU compounds were determined with three different pol Ills: the pol III enzyme from Bacillus subtilis (BS pol III), and the pol III enzymes of the clinically relevant pathogens, Enterococcus fecalis (EF pol III) and Staphylococcus aureus (SA pol 111).

B. subtilis [1] = assay: MIC against B. subtilis; type: cell-based; conditions: for MIC B. subtilis: Table 2; for MIC: Bacillus subtilis
Description: as §1, §2

[2] = tested on: vancomycin-resistant E. fecium; assay: MIC against vancomycin-resistant E. fecium (VRE, VREF*); type: cell-based; conditions: for MIC VRE: Table 2, vancomycin-resistant E. fecium
Description: as §1, §2

E. fecium = assay: MIC against E. fecium; type: cell-based; conditions: Table 2
Description: as §1

MRSA2 = assay: MIC against methicillin-resistant S. aureus strain MRSA2; type: cell-based; conditions: for MIC MRSA2: Table 2
Description: as §1, §2

E. coli = assay: MIC against E. coli (Gram-negative control); type: cell-based; conditions: for MIC E. coli: Table 2
Description: as §1, §2

MRSA = assay: MIC against methicillin-resistant S. aureus strain MRSA / MRSA1; type: cell-based; conditions: for MIC MRSA: Table 2
Description: as §1, §2

[3] = tested on: vancomycin-resistant E. fecalis; assay: MIC against vancomycin-resistant E. fecalis (VREF); type: cell-based; conditions: Table 5, vancomycin-resistant E. fecalis
Description: as §2

EF pol III = EF pol III (Enterococcus faecalis, UniProt Q831W8); assay: Inhibition of E. fecalis pol III (Ki); type: biochemical
Description: as §3

SA pol III = target: T1, SA pol III (Staphylococcus aureus, UniProt P0C1P9); assay: Inhibition of S. aureus pol III (Ki); type: biochemical; conditions: Table 4, average of 3 determinations, standard deviation 13.4%
T1 sequence (P0C1P9 1-1435): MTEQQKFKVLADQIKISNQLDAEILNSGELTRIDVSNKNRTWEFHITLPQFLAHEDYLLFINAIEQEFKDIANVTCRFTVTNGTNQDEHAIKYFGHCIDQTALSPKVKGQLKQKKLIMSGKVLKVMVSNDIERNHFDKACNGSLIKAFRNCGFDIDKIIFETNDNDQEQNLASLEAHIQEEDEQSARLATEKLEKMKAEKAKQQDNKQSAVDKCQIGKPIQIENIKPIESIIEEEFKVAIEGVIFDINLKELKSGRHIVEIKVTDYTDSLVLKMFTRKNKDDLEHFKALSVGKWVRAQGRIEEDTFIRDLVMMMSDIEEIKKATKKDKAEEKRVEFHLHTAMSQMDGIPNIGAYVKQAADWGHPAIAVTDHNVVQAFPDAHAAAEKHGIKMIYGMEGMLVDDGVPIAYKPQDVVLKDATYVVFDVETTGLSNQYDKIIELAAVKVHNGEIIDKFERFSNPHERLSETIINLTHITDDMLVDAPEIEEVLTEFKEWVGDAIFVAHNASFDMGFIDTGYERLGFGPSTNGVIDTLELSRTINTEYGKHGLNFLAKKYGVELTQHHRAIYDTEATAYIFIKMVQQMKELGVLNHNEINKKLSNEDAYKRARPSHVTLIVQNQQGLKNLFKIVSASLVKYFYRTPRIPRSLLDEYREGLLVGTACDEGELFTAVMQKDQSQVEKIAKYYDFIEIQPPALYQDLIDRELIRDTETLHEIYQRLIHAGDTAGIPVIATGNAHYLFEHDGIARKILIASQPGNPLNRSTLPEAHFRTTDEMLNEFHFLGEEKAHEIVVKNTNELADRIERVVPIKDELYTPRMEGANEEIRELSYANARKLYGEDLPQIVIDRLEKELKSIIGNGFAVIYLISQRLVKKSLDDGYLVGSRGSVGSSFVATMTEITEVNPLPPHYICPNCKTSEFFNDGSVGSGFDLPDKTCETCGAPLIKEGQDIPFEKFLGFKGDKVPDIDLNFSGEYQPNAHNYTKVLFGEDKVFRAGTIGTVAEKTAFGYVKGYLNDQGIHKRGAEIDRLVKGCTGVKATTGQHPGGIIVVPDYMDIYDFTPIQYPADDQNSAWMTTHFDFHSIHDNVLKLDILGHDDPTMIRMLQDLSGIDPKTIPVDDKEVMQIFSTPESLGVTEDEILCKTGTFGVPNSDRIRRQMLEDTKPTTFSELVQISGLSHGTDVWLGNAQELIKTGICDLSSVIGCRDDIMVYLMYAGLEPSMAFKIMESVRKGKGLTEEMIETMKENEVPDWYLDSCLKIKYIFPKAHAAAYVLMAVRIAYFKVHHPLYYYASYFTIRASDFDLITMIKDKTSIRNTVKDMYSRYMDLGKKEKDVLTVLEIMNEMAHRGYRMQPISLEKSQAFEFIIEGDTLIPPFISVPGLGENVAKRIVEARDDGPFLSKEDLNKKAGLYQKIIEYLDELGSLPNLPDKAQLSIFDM
Description: as §3

B. subtilis [4] = assay: Antibacterial activity of crude compounds made by small scale synthesis; type: cell-based; conditions: crude reaction mixtures dissolved in DMSO, assayed directly
Description: 6-Anilinouracils were synthesized using small scale synthetic methods. One milligram quantities of 3-(3-methoxypropyl)-6-chlorouracil were heated with 42 substituted anilines in micro-test tubes at 130° C. for 20 minutes. The reaction mixtures were dissolved in DMSO and assayed directly for antibacterial activity.

[5] = Table 2, prodrugs having the EMAU core, read-out: Ki B. subtilis DNA Pol III
[6] = Table 6, read-out: MIC E. fecalis
[7] = Table 6, read-out: Ki, inhibition constant vs. B. subtilis DNA pol III
[8] = Table 6, read-out: MIC B. subtilis

Chain of B. subtilis DNA pol III (P13267 whole entry): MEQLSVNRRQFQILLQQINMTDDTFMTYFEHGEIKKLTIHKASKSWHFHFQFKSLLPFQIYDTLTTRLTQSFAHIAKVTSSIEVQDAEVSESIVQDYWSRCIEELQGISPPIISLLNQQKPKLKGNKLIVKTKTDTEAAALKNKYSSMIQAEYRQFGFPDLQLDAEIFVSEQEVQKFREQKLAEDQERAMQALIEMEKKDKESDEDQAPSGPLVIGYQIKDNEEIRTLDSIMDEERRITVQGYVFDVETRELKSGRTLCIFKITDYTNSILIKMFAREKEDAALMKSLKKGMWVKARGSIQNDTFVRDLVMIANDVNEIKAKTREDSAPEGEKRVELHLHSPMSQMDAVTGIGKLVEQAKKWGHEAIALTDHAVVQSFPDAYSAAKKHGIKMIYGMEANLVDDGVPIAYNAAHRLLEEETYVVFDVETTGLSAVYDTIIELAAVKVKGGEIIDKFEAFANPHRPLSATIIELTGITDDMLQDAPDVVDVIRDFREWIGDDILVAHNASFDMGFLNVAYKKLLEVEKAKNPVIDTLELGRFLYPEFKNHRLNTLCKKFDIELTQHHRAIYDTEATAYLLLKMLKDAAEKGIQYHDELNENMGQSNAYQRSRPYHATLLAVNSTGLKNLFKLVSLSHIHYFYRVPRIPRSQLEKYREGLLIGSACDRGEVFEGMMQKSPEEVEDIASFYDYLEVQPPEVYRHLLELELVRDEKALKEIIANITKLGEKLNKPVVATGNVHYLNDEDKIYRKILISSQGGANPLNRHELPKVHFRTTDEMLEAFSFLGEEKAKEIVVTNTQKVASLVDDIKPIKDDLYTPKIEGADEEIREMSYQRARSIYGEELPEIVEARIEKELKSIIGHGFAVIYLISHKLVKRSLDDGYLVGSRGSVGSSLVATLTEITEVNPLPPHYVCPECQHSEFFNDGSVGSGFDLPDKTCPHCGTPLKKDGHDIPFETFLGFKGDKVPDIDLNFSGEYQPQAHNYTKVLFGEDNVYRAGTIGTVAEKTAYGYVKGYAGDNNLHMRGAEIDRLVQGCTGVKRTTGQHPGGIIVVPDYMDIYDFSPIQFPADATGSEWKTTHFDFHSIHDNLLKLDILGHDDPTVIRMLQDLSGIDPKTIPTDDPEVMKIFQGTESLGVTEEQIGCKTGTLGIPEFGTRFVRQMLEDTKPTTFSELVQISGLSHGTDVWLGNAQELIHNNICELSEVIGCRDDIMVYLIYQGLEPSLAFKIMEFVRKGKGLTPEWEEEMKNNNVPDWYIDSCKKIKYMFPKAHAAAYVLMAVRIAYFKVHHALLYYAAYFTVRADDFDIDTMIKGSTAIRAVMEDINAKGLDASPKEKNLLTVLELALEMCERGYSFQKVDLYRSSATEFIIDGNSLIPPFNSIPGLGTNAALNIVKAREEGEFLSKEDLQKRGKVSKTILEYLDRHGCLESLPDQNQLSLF

Structure (SMILES)	MIC E. fecalis (E. fecalis) [μ/ml]	MIC S. aureus (S. aureus) [μ/ml]	Ki (B. subtilis DNA pol III; [5]) [nM]	MIC B. subtilis (B. subtilis [1]) [μ/ml]	MIC VRE [2] [μ/ml]	MIC E. fecium (E. fecium) [μ/ml]	MIC MRSA2 (MRSA2) [μ/ml]	MIC E. coli (E. coli) [μ/ml]	MIC MRSA (MRSA) [μ/ml]	MIC B. subtilis (B. subtilis [4]) [µg/mL]	also measured
CCc1cc(Nc2cc(=O)n(CCCCOC(=O)C3CCCN3C(=O)OC(C)(C)C)c(=O)[nH]2)ccc1C (stereo not drawn) [(CH2)4-OCOCH(CH2)3NH-Boc]	10	10	3200	<1.25	10	10	10	>20	20		
CCc1cc(Nc2cc(=O)[nH]c(=O)[nH]2)ccc1C [EMAU, 6-(3-ethyl-4-methylanilino)uracil, reference compound]											MIC (E. fecalis; Table 5, vancomycin-sensitive, read-out: MIC EF): 25 µg/mL (≈ 102 µM); MIC (S. aureus; Table 5, methicillin-sensitive, read-out: MIC SA): 25 µg/mL (≈ 102 µM); Ki (B. subtilis DNA pol III; Table 4, average of 3 determinations, standard deviation 13.4%, read-out: KI Bs pol III): 250 nM; MIC [3]: 25 µg/mL (≈ 102 µM); Ki (EF pol III): 260 nM; MIC (B. subtilis [1]; Table 5, read-out: MIC BS): 12 µg/mL (≈ 48.9 µM); MIC ([2]; Enterococcus, Table 5, vancomycin-resistant E. fecium): 25 µg/mL (≈ 102 µM); MIC (MRSA2; Staphylococcus aureus, Table 5): 25 µg/mL (≈ 102 µM); MIC (E. coli; Escherichia coli, Table 5, Gram-negative control): > 35 µg/mL; MIC (MRSA; Staphylococcus aureus, MRSA, Table 5): 25 µg/mL (≈ 102 µM); Ki (SA pol III): 810 nM
COCCCCn1c(=O)cc(Nc2ccc(C)c(I)c2)[nH]c1=O [ME-IMAU]											MIC (E. fecalis; [6]): 3 µg/mL (≈ 6.99 µM); MIC (S. aureus; read-out: MIC S. aureas): 6 µg/mL (≈ 14 µM); Ki (B. subtilis DNA pol III; [7]): 540 nM; MIC (B. subtilis [1]; [8]): < 3.1 µg/mL
CCc1cc(Nc2cc(=O)n(CCCCOC(=O)C(CO)NC(=O)OC(C)(C)C)c(=O)[nH]2)ccc1C (stereo not drawn) [(CH2)4-OCOCH(CH2OH)NH-Boc]	5	20	1500	5	5	10	20	>20	20		
CCc1cc(Nc2cc(=O)n(CCCCOC(=O)C(N)Cc3ccccc3)c(=O)[nH]2)ccc1C (stereo not drawn) [(CH2)4-OCOCH(CH2Ph)NH3^+Cl^−]	>20	>20	6200	>20	>20	>20	>20	>20	>20		
Cc1ccc(Nc2cc(=O)n(CCCCI)c(=O)[nH]2)cc1I [IB-IMAU]											MIC (E. fecalis; [6]): 6 µg/mL (≈ 11.4 µM); MIC (S. aureus; read-out: MIC S. aureas): 6 µg/mL (≈ 11.4 µM); Ki (B. subtilis DNA pol III; [7]): 660 nM; MIC (B. subtilis [1]; [8]): < 3.1 µg/mL
CCc1cc(Nc2cc(=O)n(CCCCOC(=O)C(N)CO)c(=O)[nH]2)ccc1C.Cl (stereo not drawn) [(CH2)4-OCOCH(CH2OH)NH3^+Cl^−]	20	>20	10	10	20	20	>20	>20	>20		
CCc1cc(Nc2cc(=O)n(CCCCI)c(=O)[nH]2)ccc1C [IB-EMAU, 3-(4-iodobutyl)-6-(3-ethyl-4-methylanilino)uracil]											MIC (E. fecalis; [6]): 6 µg/mL (≈ 14 µM); MIC (S. aureus; read-out: MIC S. aureas): 12 µg/mL (≈ 28.1 µM); Ki (B. subtilis DNA pol III; [7]): 360 nM; MIC (B. subtilis [1]; [8]): < 3.1 µg/mL
CCc1cc(Nc2cc(=O)n(CCCCOC)c(=O)[nH]2)ccc1C [MB-EMAU]											MIC (E. fecalis; [6]): 6 µg/mL (≈ 18.1 µM); MIC (S. aureus; read-out: MIC S. aureas): 6 µg/mL (≈ 18.1 µM); Ki (B. subtilis DNA pol III; [7]): 430 nM; MIC (B. subtilis [1]; [8]): < 3.1 µg/mL
CCc1cc(Nc2cc(=O)n(CCCCOC(=O)C(NC(=O)OC(C)(C)C)C(C)C)c(=O)[nH]2)ccc1C (stereo not drawn) [(CH2)4-OCOCH(iPr)NH-Boc]	>20	>20	4900	2.5	>20	>20	>20	>20	>20		
COCCCn1c(=O)cc(Nc2cccc(Cl)c2)[nH]c1=O [Compound 3-Cl]										>100	
COCCCn1c(=O)cc(Nc2ccc(Br)c(Br)c2)[nH]c1=O [3,4-diBr]										3.13 (≈ 7.23 µM)	
COCCCn1c(=O)cc(Nc2cc(OC(F)(F)F)cc(OC(F)(F)F)c2)[nH]c1=O [3,5-diOCF3]										>100	
COCCCn1c(=O)cc(Nc2ccc(Cl)c(C(F)(F)F)c2)[nH]c1=O [Compound 3-CF3-4-Cl]										>100	
COCCCn1c(=O)cc(Nc2cccc(CO)c2)[nH]c1=O [Compound 3-CH2OH]										>100	
COCCCn1c(=O)cc(Nc2ccc(I)cc2)[nH]c1=O [Compound 4-I]										100 (≈ 249 µM)	
CCc1cc(Nc2cc(=O)n(CCCCOC(=O)C(C)N)c(=O)[nH]2)ccc1C (stereo not drawn) [(CH2)4-OCOCHCH3NH3^+Cl^−]	10	20	180	2.5	10	10	20	>20	20		
